From ChEMBL document CHEMBL1201862, “PubChem BioAssay data set” (2004)
The source made the active and inactive calls.

Columns and labels:
[1] = biological target: T1, Corticotropin-releasing factor receptor 2/Corticotropin-releasing factor-binding protein (Homo sapiens, UniProt P24387+Q13324); experiment: activators of CRF receptor 2 with binding protein – uHTS hits, confirmation (AID 602473); assay type: functional; details: read-out: EC50_Mean
T1 sequence (Q13324 whole entry): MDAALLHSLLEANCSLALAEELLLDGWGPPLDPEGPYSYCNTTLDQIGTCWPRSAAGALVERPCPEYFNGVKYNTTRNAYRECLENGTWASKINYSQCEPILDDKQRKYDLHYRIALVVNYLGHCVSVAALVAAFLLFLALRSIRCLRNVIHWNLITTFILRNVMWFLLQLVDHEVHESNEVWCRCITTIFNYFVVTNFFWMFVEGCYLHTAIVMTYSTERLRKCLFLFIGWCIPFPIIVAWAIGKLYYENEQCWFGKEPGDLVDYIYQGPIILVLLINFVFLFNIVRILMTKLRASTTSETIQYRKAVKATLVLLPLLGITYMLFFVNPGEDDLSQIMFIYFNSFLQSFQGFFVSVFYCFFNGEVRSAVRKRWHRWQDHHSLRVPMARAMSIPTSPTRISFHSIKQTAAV
T1 sequence (P24387 whole entry): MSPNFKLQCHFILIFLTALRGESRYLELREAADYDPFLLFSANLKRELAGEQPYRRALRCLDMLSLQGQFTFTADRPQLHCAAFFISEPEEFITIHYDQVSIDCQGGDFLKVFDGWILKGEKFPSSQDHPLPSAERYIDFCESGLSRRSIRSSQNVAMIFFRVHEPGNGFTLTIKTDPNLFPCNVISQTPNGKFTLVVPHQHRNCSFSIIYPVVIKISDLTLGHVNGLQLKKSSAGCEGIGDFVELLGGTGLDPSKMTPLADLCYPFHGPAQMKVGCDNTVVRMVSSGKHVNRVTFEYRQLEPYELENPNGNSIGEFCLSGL

[2] = biological target: T1, Corticotropin-releasing factor receptor 2/Corticotropin-releasing factor-binding protein; experiment: Dose Response confirmation of uHTS hits for small molecule antagonists of the CRF-binding protein and CRF-R2 receptor complex.; assay type: functional; details: read-out: IC50_Mean
[3] = Luminescence Cell-Based Dose Response HTS to Identify Activators of Luciferase Translation or Activity in H4 […] Cells. [Related pubchem assays: 1829 (Project Summary), 1814 (Primary HTS)]; assay type: functional
H4 = experiment: Luminescence Cell-Based Dose Response HTS to Identify Activators of 5'UTR Stem-Loop Driven Prion Protein mRNA Translation in H4 Neuroglioblastoma Cells. [Related pubchem assays: 1829 (Project Summary), 1814 (Primary HTS)]; assay type: functional; details: Homo sapiens
[4] = Luminescence Cell-Based Dose Confirmation HTS to Identify Activators of 5'UTR Stem-Loop Driven Alpha-Synuclein mRNA Translation in H4 Neuroglioblastoma Cells. [Related pubchem assays: 1829 (Project Summary), 1814 (Primary HTS)]; assay type: functional
Cytochrome P450 2D6 = Cytochrome P450 2D6 (Homo sapiens, UniProt P10635);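 also: CYP2D6 member of a cytochrome P450 panel assay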
Sequence of Cytochrome P450 2D6 (P10635 whole entry): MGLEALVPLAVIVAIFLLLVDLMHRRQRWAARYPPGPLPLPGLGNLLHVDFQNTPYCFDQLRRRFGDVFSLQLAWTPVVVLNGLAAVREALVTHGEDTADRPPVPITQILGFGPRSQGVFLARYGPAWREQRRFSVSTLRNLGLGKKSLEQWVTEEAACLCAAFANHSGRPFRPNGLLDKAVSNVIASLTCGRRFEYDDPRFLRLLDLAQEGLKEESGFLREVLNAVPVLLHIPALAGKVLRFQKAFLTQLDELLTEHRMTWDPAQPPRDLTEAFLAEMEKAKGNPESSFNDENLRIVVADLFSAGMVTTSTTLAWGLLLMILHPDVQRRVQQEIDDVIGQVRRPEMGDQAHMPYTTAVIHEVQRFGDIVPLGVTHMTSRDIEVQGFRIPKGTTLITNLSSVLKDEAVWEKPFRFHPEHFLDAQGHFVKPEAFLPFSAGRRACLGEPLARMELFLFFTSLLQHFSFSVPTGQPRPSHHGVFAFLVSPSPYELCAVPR

Cytochrome P450 1A2 = biological target: T2, Cytochrome P450 1A2 (Homo sapiens, UniProt P05177);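 also: PubChem cytochrome P450 panel assay, CYP1A2 panel member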
T2 sequence (P05177 whole entry): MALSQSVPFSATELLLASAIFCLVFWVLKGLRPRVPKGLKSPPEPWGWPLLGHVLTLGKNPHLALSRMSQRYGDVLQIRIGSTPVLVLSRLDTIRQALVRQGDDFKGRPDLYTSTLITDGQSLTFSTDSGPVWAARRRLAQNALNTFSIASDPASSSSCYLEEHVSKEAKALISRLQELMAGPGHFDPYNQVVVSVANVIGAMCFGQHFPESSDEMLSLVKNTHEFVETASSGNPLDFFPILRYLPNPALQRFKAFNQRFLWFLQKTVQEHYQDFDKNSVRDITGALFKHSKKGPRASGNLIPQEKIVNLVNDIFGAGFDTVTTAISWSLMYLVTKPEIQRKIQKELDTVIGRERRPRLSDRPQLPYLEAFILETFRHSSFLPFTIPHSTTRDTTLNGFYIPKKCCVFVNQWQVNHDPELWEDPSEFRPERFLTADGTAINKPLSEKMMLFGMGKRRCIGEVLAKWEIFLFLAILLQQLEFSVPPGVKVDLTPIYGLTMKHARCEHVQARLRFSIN

[5] = biological target: Heat shock protein HSP 90-alpha (Homo sapiens, UniProt P07900); assay type: functional, organism-based
Protein RecA = biological target: T3, Protein RecA (Mycobacterium tuberculosis, UniProt P9WHJ3); experiment: Fluorescence Cell-Free Homogeneous Dose Retest to Identify Inhibitors of RecA-Intein Splicing Activity. [Related pubchem assays (depositor defined):AID2097, AID2223, AID489010, AID492950]; assay type: functional
T3 sequence (P9WHJ3 whole entry): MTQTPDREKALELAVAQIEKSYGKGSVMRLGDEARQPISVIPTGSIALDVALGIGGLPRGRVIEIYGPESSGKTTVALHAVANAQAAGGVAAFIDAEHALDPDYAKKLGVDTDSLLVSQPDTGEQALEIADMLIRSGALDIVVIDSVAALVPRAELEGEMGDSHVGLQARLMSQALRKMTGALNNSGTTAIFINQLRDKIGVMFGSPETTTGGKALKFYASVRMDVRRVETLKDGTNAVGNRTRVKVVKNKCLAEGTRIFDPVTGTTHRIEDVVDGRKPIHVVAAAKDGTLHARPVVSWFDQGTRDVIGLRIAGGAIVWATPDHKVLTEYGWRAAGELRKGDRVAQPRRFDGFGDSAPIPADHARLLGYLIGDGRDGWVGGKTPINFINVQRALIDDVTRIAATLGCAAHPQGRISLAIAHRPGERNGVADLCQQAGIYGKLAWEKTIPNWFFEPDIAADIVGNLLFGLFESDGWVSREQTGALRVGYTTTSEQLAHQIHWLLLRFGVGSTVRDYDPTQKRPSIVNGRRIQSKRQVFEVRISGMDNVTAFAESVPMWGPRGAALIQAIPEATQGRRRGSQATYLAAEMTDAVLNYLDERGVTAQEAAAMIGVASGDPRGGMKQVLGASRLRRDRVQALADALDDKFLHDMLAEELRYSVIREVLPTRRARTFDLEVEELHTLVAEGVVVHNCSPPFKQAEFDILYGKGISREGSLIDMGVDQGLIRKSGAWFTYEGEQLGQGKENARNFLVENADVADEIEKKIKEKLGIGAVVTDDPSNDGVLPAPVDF

[6] = biological target: T4, Replicative DNA helicase DnaB (Mycobacterium tuberculosis, UniProt P9WMR3); experiment: DnaB intein splicing inhibitors, dose response, biochemical, cell-free fluorescence (AID 449749); assay type: functional
T4 sequence (P9WMR3 whole entry): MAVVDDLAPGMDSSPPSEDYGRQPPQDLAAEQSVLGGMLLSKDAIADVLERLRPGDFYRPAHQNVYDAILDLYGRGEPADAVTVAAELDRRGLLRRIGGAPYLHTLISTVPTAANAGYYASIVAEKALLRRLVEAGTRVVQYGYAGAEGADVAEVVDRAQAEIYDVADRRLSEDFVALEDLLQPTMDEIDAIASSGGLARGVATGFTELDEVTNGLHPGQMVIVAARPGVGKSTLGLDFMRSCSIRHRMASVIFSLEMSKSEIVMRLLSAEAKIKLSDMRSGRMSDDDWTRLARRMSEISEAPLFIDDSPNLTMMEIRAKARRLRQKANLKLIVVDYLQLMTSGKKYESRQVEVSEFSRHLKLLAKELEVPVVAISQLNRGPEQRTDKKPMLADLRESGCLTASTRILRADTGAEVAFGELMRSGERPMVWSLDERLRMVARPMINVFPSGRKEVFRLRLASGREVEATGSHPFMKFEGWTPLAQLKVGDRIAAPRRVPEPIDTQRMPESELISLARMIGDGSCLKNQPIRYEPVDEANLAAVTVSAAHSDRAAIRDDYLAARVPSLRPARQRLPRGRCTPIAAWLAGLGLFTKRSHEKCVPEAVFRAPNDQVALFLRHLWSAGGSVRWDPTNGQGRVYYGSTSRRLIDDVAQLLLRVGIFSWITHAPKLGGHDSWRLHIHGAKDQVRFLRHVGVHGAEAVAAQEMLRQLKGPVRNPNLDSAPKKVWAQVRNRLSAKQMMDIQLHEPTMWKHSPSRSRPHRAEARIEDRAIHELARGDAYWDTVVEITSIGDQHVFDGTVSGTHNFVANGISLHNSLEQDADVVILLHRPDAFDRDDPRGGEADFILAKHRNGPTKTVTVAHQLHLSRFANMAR

Cytochrome P450 3A4 = Cytochrome P450 3A4 (Homo sapiens, UniProt P08684);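 also: CYP3A4 tested as one member of a cytochrome P450 panel screen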
Sequence of Cytochrome P450 3A4 (P08684 whole entry): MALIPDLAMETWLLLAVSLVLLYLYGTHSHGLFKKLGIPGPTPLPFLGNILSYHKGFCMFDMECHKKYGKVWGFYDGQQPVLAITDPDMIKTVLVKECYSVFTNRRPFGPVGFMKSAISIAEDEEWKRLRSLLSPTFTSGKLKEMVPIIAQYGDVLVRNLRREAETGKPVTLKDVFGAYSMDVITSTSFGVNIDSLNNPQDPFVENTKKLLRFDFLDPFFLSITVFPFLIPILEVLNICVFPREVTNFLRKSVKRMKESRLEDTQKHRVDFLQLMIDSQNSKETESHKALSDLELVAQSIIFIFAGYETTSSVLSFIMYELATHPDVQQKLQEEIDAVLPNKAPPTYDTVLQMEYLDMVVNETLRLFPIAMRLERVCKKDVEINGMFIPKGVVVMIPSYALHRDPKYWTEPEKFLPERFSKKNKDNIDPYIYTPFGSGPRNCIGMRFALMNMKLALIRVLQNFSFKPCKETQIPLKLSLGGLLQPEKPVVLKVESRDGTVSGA

[7] = non-specific 3'UTR reporter inhibition in Clone20-Shn3RL – cell-based, Renilla luciferase, cherry-picked, counter-screen for Shn3 inhibitor project, dose response (AID 624133); assay type: functional
[8] = NIH3T3 cell viability loss – ATP luminescence, mouse fibroblasts, counter-screen, dose response (AID 2010); assay type: functional, cell-based;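 also: cells exposed to compound for about 90 hours before reading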
[9] = Trypanosoma cruzi growth suppression in host cells – NIH3T3 host cells, beta-gal luminescence, confirmation (AID 2044); assay type: functional, cell-based;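 also: intracellular parasites grown in NIH/3T3 mouse fibroblasts as host cells; luminescent beta-galactosidase reporter signal from transgenic T. cruzi replicating inside host cells; inhibitors lower the luminescence signal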
Cytochrome P450 2C9 = Cytochrome P450 2C9 (Homo sapiens, UniProt P11712)
Sequence of Cytochrome P450 2C9 (P11712 whole entry): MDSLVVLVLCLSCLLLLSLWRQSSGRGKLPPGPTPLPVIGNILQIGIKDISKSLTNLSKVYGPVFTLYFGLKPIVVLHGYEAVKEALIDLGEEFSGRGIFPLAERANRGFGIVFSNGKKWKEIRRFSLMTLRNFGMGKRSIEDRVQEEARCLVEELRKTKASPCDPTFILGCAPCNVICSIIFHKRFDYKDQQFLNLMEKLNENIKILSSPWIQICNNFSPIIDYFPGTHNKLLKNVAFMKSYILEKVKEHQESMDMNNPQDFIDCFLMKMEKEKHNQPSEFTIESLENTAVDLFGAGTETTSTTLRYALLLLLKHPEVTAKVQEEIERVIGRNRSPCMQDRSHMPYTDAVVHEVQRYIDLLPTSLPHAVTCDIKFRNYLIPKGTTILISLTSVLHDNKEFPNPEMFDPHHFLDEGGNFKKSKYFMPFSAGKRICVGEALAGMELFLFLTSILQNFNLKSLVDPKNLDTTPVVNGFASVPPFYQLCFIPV

Cytochrome P450 2C19 = Cytochrome P450 2C19 (Homo sapiens, UniProt P33261); experiment: Cytochrome panel assay with activity outcomes. Panel member name: p450-cyp2c19 Compounds with AC50 equal or less than 10 uM are considered active; assay type: functional; details: read-out: AC50
Sequence of Cytochrome P450 2C19 (P33261 whole entry): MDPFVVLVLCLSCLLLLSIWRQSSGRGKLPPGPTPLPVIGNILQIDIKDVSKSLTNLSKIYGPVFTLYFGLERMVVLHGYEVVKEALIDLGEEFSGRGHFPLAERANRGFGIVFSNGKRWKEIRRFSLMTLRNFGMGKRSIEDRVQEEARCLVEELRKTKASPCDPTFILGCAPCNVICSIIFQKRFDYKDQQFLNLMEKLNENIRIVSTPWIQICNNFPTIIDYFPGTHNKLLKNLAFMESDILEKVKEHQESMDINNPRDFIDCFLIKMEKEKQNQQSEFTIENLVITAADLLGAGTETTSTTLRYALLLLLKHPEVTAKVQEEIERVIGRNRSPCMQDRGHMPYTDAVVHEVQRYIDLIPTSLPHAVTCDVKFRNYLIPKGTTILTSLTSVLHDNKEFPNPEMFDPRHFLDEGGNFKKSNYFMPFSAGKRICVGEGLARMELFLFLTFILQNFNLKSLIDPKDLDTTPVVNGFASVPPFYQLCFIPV

## COc1ccc(OCC(O)CN2CCc3ccccc3C2)cc1 (configuration not stated)
[1]
  EC50: > 53 µM (inactive)
[2]
  IC50: > 47.1 µM (inactive)

## N#CC1=C(N)Oc2cc(N)ccc2C1C1CCCCC1 (configuration not stated)
[3]
  EC50: > 120 µM (not active)
H4
  EC50: > 120 µM (not active)
[4]
  EC50: > 120 µM (not active)

## COc1ccc(OC(=O)c2ccc(Cl)cc2)c(C(C)=O)c1
[1]
  EC50: > 53 µM (inactive)
[2]
  IC50: > 47.1 µM (inactive)

## c1ccc(CCn2nnnc2CN2CCCc3ccccc32)cc1
[1]
  EC50: > 53 µM (inactive)

## CC1(C)c2[nH]c3ccccc3c2C[C@H]2C(=O)N(Cc3ccccc3)C(=O)N21
[1]
  EC50: > 53 µM (inactive)
[2]
  IC50: > 47.1 µM (inactive)

## CCCOc1ccc(OCCSc2nnc(N)s2)cc1
[3]
  EC50: 15 µM (active)
H4
  EC50: 15.2 µM (active)
[4]
  EC50: 23.1 µM (active)

## COc1ccc(CC(=O)Nc2cccc(-c3nnc(-c4ccco4)o3)c2)cc1
Cytochrome P450 2D6
  AC50: 20 µM (inconclusive)
Cytochrome P450 1A2
  AC50: 15.8 µM (inconclusive)

## CC(Sc1nnc(Cc2cccs2)n1C1CC1)C(=O)NC1CCS(=O)(=O)C1 (configuration not stated)
[1]
  EC50: > 53 µM (inactive)
[2]
  IC50: > 47.1 µM (inactive)

## Oc1cc(-c2ccc(C3CCCCC3)cc2)[nH]n1
[5]
  AC50: 8 µM (active)
Protein RecA
  EC50: 1.01 µM (active)
[6]
  AC50: 1.99 µM (active)

## CSc1nc2ccc(S(=O)(=O)NC3CCCCC3)cc2s1
[5]
  AC50: 8.57 µM (active)

## CC(C)(C)C(=O)NC(=S)NCCc1ccccc1
[1]
  EC50: > 53 µM (inactive)
Cytochrome P450 3A4
  AC50: 25.1 µM (inconclusive)
[2]
  IC50: > 47.1 µM (inactive)

## Nc1ccc(Cc2nc3c(ccc4ccccc43)[nH]2)cc1
[3]
  EC50: 24.8 µM (active)
H4
  EC50: 14.7 µM (active)
[4]
  EC50: 14 µM (active)

## COc1ccccc1-n1ccnc(SCC(=O)NCc2ccccc2Cl)c1=O
[7]
  AC50: 13 µM (active)

## CC(C)(C)c1nc(CN2CCCCC2)cc(CN2CCCCC2)c1O
[1]
  EC50: > 53 µM (inactive)
[2]
  IC50: > 47.1 µM (inactive)

## CCOC(=O)C1CCCN(C(=O)c2cccc(S(=O)(=O)N(Cc3ccccc3)c3ccccc3OC)c2)C1 (configuration not stated)
[8]
  EC50: 35.2 µM (active)
[9]
  EC50: 3.84 µM (active)
[1]
  EC50: > 53 µM (inactive)
[2]
  IC50: > 47.1 µM (inactive)

## Cc1cc(C)cc(C(=O)NCC(=O)OCC(=O)NCC(F)(F)F)c1
[7]
  AC50: 9.91 µM (active)

## O=C1C2C3C=CC(CO)(O3)C2C(=O)N1c1ccc(-c2ccccc2)cc1 (configuration not stated)
[3]
  EC50: 8.45 µM (active)
H4
  EC50: 15.5 µM (active)
[4]
  EC50: > 120 µM (not active)

## Cc1ccc(C2CN=NC23CCc2ccccc2C3=O)cc1 (configuration not stated)
[3]
  EC50: 23.9 µM (active)
H4
  EC50: > 120 µM (not active)
[4]
  EC50: 15.3 µM (active)

## CCOC(=O)c1ccccc1N/C=C1\CCCCC1=O
Cytochrome P450 2D6
  AC50: 35.5 µM (inconclusive)
Cytochrome P450 2C9
  AC50: 39.8 µM (inconclusive)

## O=[N+]([O-])c1ccc(O)c(C2CCCCC2)c1
[5]
  AC50: 8.09 µM (active)

## O=C(CSCC(=O)OCn1nnc2ccccc2c1=O)Nc1ccc(Cl)cc1
Cytochrome P450 2D6
  AC50: 25.1 µM (inconclusive)
Cytochrome P450 1A2
  AC50: 25.1 µM (inconclusive)

## C#CCCCC(=S)Nc1ccccc1
Cytochrome P450 2C19
  AC50: 39.8 µM (inconclusive)
Cytochrome P450 2D6
  AC50: 39.8 µM (inconclusive)
Cytochrome P450 2C9
  AC50: 39.8 µM (inconclusive)
Cytochrome P450 3A4
  AC50: 25.1 µM (inconclusive)

## O=C1NC(c2cccc([N+](=O)[O-])c2)=CCN1c1ccccc1O [ICILLIN]
Cytochrome P450 2D6
  AC50: 20 µM (inconclusive)
Cytochrome P450 1A2
  AC50: 31.6 µM (inconclusive)
